Assays:
Mouse urotensin (mUR2) = target: T1, Mouse urotensin (mUR2) (Mus musculus, UniProt Q8VIH9); assay: Radioligand binding, mouse urotensin mUR2 membranes, FlashPlate, [125I]-Urotensin II; conditions: compound at 10 μM, [125I]-Urotensin II
T1 construct: purchased Perkin Elmer Biosignal
T1 sequence (Q8VIH9 1-385): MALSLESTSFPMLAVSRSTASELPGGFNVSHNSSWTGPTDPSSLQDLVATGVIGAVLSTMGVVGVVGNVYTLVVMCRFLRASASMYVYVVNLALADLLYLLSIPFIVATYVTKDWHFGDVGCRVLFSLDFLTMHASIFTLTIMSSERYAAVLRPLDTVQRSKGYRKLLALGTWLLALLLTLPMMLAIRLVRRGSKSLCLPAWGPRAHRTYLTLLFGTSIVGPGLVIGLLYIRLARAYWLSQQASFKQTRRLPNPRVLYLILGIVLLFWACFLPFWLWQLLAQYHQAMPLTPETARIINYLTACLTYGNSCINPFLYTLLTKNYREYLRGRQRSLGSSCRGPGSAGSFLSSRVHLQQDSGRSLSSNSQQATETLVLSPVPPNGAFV
Procedure, shortened: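 Cloned mouse urotensin (mUR2) receptor membranes from Perkin Elmer Biosignal were immobilized in FlashPlate microplates using a proprietary coating. Each well got 19.5 μl buffer, then 0.5 μl of DMSO, reference ligand, or compound. Adding 5 μl of [125I]-Urotensin II, diluted to 5× final concentration in binding buffer, started binding. Plates were sealed with TopSeal-A and incubated 1 hour at room temperature in the dark. Wells were counted for 30 seconds each on a TopCount after a 60-second delay, and percentage inhibition was calculated.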

Human Melanocortin (MC4) = target: T2, Human Melanocortin (MC4) (Homo sapiens, UniProt P32245); assay: Radioligand binding, human melanocortin MC4 membranes, FlashPlate, [125I]-NDP-αMSH; conditions: compound at 10 μM, [125I]-NDP-αMSH
T2 construct: purchased Perkin Elmer Biosignal
Procedure, shortened: (§1)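 Cloned human receptor membranes were coated onto FlashPlate wells and incubated with radioligand and compound (added from a 0.5 mM DMSO daughter plate) for 1 hour at room temperature in the dark. Scintillation counting gave percent inhibition, with DMSO defining total and reference ligand defining non-specific binding.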

Human melanocortin (MC5) = target: T3, Human melanocortin (MC5) (Homo sapiens, UniProt P33032); assay: Radioligand binding, human melanocortin MC5 membranes, FlashPlate, [125I]-NDP-αMSH; conditions: compound at 10 μM, [125I]-NDP-αMSH
T3 construct: purchased Perkin Elmer Biosignal
Procedure, shortened: as §1

Human opioid (ORL1) = target: T4, Human opioid (ORL1) (Homo sapiens, UniProt P41146); assay: Radioligand binding, human opioid ORL1 membranes, FlashPlate, [125I]-Nociceptin; conditions: compound at 10 μM, [125I]-Nociceptin
T4 construct: purchased Perkin Elmer Biosignal
Procedure, shortened: as §1

Human κ-Opioid (KOP) = target: T5, Human κ-Opioid (KOP) (Homo sapiens, UniProt P41145); assay: Radioligand binding, human κ-opioid (KOP) membranes, filtration, [3H]-Diprenorphine; conditions: compound at 10 μM, [3H]-Diprenorphine
T5 construct: purchased Perkin Elmer Biosignal
Procedure, shortened: (§2)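 Percent inhibition of radioligand binding measured on recombinant human membranes: NK1 with [125I]-Substance P, KOP with [3H]-Diprenorphine. Incubation 1 h at room temperature, then harvest onto 0.3% PEI-soaked filters, cold Tris-HCl pH 7.4 washes and scintillation counting; non-specific binding from reference ligand wells.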

[1] = target: T6, Human neuropeptide Y (NPY-Y1) (Homo sapiens, UniProt P25929); assay: Radioligand binding, human neuropeptide Y NPY-Y1 membranes, FlashPlate, [125I]-PYY; conditions: compound at 10 μM, [125I]-PYY
T6 construct: purchased Perkin Elmer Biosignal
T6 sequence (P25929 1-384): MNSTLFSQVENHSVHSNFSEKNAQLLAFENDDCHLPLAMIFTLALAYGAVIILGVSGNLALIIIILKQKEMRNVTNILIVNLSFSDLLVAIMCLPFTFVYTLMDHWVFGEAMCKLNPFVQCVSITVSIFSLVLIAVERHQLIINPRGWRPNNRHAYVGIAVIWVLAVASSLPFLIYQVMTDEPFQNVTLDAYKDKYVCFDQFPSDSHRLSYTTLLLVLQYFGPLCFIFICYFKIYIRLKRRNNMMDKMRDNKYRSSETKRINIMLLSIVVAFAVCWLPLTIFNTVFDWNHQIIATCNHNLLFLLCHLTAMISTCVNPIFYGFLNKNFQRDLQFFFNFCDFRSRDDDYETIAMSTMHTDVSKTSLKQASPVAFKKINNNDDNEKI
Procedure, shortened: as §1

Human μ-opioid (MOP) = target: T7, Human μ-opioid (MOP) (Homo sapiens, UniProt P35372); assay: Radioligand binding, human μ-opioid (MOP) membranes, FlashPlate, [3H]-Naloxone; conditions: compound at 10 μM, [3H]-Naloxone
T7 construct: purchased Perkin Elmer Biosignal
Procedure, shortened: as §1

[2] = target: T8, Human melanin-concentrating hormone (MCH1) (Homo sapiens, UniProt Q99705); assay: Radioligand binding, human melanin-concentrating hormone MCH1 membranes, FlashPlate, [125I]-S36057; conditions: compound at 10 μM; for A6 radioligand binding, percentage inhibition / A6: inhibition of radioligand binding, human melanin-concentrating hormone (MCH1): [125I]-S36057
T8 construct: purchased Perkin Elmer Biosignal
Procedure, shortened: as §1

Human neurokinin (NK1) = target: T9, Human neurokinin (NK1) (Homo sapiens, UniProt P25103); assay: Radioligand binding, human neurokinin NK1 membranes, filtration, [125I]-Substance P; conditions: compound at 10 μM, [125I]-Substance P
T9 construct: purchased Perkin Elmer Biosignal
Procedure, shortened: as §2

Human Melanocortin (MC3) = target: T10, Human Melanocortin (MC3) (Homo sapiens, UniProt P41968); assay: Radioligand binding, human melanocortin MC3 membranes, FlashPlate, [125I]-NDP-αMSH; conditions: compound at 10 μM, [125I]-NDP-αMSH
T10 construct: purchased Perkin Elmer Biosignal
Procedure, shortened: as §1

Human δ-opioid (DOP) = target: T11, Human δ-opioid (DOP) (Homo sapiens, UniProt P41143); assay: Radioligand binding, human δ-opioid (DOP) membranes, FlashPlate, [3H]-Bremazocine; conditions: compound at 10 μM, [3H]-Bremazocine
T11 construct: purchased Perkin Elmer Biosignal
Procedure, shortened: as §1

T2 sequence (P32245 whole entry): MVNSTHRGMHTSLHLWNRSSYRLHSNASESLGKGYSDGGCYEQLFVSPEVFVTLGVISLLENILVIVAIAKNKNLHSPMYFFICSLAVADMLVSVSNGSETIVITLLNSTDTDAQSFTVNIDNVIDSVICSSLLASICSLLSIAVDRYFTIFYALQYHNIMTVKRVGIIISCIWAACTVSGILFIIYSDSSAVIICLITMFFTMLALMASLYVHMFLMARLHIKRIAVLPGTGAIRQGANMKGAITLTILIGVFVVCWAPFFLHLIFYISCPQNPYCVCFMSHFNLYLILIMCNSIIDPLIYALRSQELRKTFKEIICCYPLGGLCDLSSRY
T10 sequence (P41968 whole entry): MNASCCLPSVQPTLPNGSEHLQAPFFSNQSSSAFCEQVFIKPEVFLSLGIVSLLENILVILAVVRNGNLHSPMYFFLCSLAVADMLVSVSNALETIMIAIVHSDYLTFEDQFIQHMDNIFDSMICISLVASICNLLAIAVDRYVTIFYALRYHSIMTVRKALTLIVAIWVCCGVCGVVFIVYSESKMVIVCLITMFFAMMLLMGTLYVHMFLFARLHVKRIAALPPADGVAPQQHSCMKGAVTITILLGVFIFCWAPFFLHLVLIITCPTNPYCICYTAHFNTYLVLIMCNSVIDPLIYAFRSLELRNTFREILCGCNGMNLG
T3 sequence (P33032 whole entry): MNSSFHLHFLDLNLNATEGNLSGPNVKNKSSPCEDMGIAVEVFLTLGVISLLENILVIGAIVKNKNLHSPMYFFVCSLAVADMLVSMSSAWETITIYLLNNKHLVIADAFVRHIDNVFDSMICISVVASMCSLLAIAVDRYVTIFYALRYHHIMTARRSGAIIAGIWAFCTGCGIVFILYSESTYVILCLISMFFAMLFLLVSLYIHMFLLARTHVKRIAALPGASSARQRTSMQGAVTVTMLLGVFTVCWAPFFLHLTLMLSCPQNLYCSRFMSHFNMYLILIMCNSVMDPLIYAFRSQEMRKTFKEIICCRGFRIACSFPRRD
T9 sequence (P25103 whole entry): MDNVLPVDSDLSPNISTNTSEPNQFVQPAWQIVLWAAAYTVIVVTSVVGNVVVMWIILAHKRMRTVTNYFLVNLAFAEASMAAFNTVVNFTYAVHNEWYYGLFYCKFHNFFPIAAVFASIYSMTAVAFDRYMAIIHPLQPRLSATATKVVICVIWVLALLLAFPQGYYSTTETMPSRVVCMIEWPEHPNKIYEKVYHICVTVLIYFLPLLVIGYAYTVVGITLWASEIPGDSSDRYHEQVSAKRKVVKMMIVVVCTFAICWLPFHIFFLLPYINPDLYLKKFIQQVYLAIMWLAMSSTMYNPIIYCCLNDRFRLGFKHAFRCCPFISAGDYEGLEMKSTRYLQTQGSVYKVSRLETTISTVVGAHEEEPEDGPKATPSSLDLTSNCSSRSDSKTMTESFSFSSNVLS
T5 sequence (P41145 whole entry): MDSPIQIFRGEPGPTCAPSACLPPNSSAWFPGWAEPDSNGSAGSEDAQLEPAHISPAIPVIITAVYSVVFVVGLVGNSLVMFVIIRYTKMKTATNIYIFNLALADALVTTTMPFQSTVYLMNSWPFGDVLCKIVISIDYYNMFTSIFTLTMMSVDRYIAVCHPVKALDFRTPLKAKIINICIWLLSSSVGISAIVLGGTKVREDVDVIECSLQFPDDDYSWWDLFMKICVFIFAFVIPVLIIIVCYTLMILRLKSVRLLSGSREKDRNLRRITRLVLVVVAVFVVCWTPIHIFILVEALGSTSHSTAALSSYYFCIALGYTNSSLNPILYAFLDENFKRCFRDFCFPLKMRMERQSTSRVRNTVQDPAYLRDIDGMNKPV
T11 sequence (P41143 whole entry): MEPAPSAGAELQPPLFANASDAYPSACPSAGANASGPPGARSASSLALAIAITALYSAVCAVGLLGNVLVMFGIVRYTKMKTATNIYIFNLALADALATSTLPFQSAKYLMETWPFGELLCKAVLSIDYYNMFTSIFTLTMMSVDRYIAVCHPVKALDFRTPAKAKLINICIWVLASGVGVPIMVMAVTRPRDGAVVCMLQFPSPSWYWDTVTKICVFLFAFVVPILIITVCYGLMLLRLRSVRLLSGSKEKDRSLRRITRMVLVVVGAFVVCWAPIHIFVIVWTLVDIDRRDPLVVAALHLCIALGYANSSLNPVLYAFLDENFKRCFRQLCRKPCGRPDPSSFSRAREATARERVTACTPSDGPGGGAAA
T8 sequence (Q99705 whole entry): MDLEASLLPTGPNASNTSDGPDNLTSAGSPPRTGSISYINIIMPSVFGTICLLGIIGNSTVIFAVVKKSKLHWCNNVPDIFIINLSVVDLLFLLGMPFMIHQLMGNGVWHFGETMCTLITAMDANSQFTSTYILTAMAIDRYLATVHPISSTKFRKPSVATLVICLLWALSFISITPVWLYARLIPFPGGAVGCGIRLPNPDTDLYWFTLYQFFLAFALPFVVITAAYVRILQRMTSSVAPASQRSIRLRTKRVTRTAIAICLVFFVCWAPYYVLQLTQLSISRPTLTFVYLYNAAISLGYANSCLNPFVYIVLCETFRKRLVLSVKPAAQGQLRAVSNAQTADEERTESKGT
T4 sequence (P41146 whole entry): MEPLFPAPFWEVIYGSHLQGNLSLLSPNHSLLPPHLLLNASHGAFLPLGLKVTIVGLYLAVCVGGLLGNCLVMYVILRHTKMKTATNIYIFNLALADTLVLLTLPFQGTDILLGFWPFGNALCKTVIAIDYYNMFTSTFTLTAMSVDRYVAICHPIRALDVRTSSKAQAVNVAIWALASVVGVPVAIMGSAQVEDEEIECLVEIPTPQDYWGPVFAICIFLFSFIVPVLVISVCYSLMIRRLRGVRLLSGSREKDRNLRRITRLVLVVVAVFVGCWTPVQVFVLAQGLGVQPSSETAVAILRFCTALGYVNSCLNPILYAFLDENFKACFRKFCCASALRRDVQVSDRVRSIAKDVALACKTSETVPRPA
T7 sequence (P35372 whole entry): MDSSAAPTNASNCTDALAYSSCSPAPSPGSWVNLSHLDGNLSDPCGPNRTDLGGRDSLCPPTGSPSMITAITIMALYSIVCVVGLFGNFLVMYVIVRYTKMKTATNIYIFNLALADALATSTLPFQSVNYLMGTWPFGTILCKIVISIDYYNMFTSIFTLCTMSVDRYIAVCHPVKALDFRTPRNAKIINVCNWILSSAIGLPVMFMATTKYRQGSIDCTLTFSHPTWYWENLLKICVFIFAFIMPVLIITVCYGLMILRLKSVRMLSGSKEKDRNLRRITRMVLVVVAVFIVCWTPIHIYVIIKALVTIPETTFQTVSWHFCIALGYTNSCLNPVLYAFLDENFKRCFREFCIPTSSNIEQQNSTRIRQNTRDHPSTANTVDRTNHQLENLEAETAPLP

SMILES	A11 radioligand binding, percentage inhibition (Mouse urotensin (mUR2))	A4 radioligand binding, percentage inhibition (Human Melanocortin (MC4))	A5 radioligand binding, percentage inhibition (Human melanocortin (MC5))	A10 radioligand binding, percentage inhibition (Human opioid (ORL1))	A2 radioligand binding, percentage inhibition (Human κ-Opioid (KOP))	A9 radioligand binding, percentage inhibition [1]	A7 radioligand binding, percentage inhibition (Human μ-opioid (MOP))	A6 radioligand binding, percentage inhibition [2]	A8 radioligand binding, percentage inhibition (Human neurokinin (NK1))	A3 radioligand binding, percentage inhibition (Human Melanocortin (MC3))	A1 radioligand binding, percentage inhibition (Human δ-opioid (DOP))	A11: inhibition of radioligand binding, mouse urotensin (mUR2) (Mouse urotensin (mUR2))	A9: inhibition of radioligand binding, human neuropeptide Y (NPY-Y1) [1]	A7: inhibition of radioligand binding, human μ-opioid (MOP) (Human μ-opioid (MOP))	A6: inhibition of radioligand binding, human melanin-concentrating hormone (MCH1) [2]	A8: inhibition of radioligand binding, human neurokinin (NK1) (Human neurokinin (NK1))	A1: inhibition of radioligand binding, human δ-opioid (DOP) (Human δ-opioid (DOP))	other results
CO[C@H]1[C@H](O)[C@@H](COCc2ccccc2)OC(OCc2ccc(Cl)cc2)[C@@H]1NC(=O)CNC(=N)N (stereo partly shown) [compound 101]	− (“−” indicates less than 50% inhibition at 10 μM)	− (“−” indicates less than 50% inhibition at 10 μM)	+ (“+” indicates greater than 50% inhibition at 10 μM)	− (“−” indicates less than 50% inhibition at 10 μM)	− (“−” indicates less than 50% inhibition at 10 μM)	− (“−” indicates less than 50% inhibition at 10 μM)	− (“−” indicates less than 50% inhibition at 10 μM)	− (“−” indicates less than 50% inhibition at 10 μM)	− (“−” indicates less than 50% inhibition at 10 μM)	− (“−” indicates less than 50% inhibition at 10 μM)	− (“−” indicates less than 50% inhibition at 10 μM)							
NCCCC(=O)NC1C(OCc2ccc(Cl)cc2)OC(COCc2ccccc2)C(O)C1OCc1ccccc1 (single isomer, unassigned) [compound 503]												− (“−” indicates less than 50% inhibition at 10 μM)	− (“−” indicates less than 50% inhibition at 10 μM)	− (“−” indicates less than 50% inhibition at 10 μM)	− (“−” indicates less than 50% inhibition at 10 μM)	+ (“+” indicates greater than 50% inhibition at 10 μM)	− (“−” indicates less than 50% inhibition at 10 μM)	A4: inhibition of radioligand binding, human melanocortin (MC4) (Human Melanocortin (MC4)): − (“−” indicates less than 50% inhibition at 10 μM); A5: inhibition of radioligand binding, human melanocortin (MC5) (Human melanocortin (MC5); 10 µM): + (“+” indicates greater than 50% inhibition at 10 μM); A10: inhibition of radioligand binding, human opioid (ORL1) (Human opioid (ORL1); 10 µM): − (“−” indicates less than 50% inhibition at 10 μM); A2: inhibition of radioligand binding, human κ-opioid (KOP) (Human κ-Opioid (KOP)): − (“−” indicates less than 50% inhibition at 10 μM); A3: inhibition of radioligand binding, human melanocortin (MC3) (Human Melanocortin (MC3)): − (“−” indicates less than 50% inhibition at 10 μM)
N=C(N)NCCC(=O)N[C@H]1C(OCc2ccc(Cl)cc2)O[C@H](COCc2ccc(Cl)cc2)[C@@H](O)[C@@H]1OCc1ccc(Cl)cc1 (stereo partly shown) [compound 527]												− (“−” indicates less than 50% inhibition at 10 μM)	− (“−” indicates less than 50% inhibition at 10 μM)	− (“−” indicates less than 50% inhibition at 10 μM)	+ (“+” indicates greater than 50% inhibition at 10 μM)	+ (“+” indicates greater than 50% inhibition at 10 μM)	− (“−” indicates less than 50% inhibition at 10 μM)	A4: inhibition of radioligand binding, human melanocortin (MC4) (Human Melanocortin (MC4); 10 µM): + (“+” indicates greater than 50% inhibition at 10 μM); A5: inhibition of radioligand binding, human melanocortin (MC5) (Human melanocortin (MC5)): + (“+” indicates greater than 50% inhibition at 10 μM); A10: inhibition of radioligand binding, human opioid (ORL1) (Human opioid (ORL1)): − (“−” indicates less than 50% inhibition at 10 μM); A2: inhibition of radioligand binding, human κ-opioid (KOP) (Human κ-Opioid (KOP); 10 µM): + (“+” indicates greater than 50% inhibition at 10 μM); A3: inhibition of radioligand binding, human melanocortin (MC3) (Human Melanocortin (MC3); 10 µM): + (“+” indicates greater than 50% inhibition at 10 μM)
CO[C@H]1[C@H](O)[C@@H](COCc2ccc(Cl)cc2)OC(OCc2ccccc2)[C@@H]1NC(=O)CCCN (stereo partly shown) [compound 92]	− (“−” indicates less than 50% inhibition at 10 μM)	− (“−” indicates less than 50% inhibition at 10 μM)	− (“−” indicates less than 50% inhibition at 10 μM)	− (“−” indicates less than 50% inhibition at 10 μM)	− (“−” indicates less than 50% inhibition at 10 μM)	− (“−” indicates less than 50% inhibition at 10 μM)	− (“−” indicates less than 50% inhibition at 10 μM)	− (“−” indicates less than 50% inhibition at 10 μM)	+ (“+” indicates greater than 50% inhibition at 10 μM)	− (“−” indicates less than 50% inhibition at 10 μM)	− (“−” indicates less than 50% inhibition at 10 μM)							
CSC1OC(COCc2ccc(Cl)cc2)C(O)C(OCc2ccc(Cl)cc2)C1NC(=O)CNC(=N)N (stereo not shown) [compound 270]																		A11: inhibition of radioligand binding (Mouse urotensin (mUR2); FlashPlate): − (“−” indicates less than 50% inhibition at 10 μM); A4: inhibition of radioligand binding (Human Melanocortin (MC4); FlashPlate): + (“+” indicates greater than 50% inhibition at 10 μM); A5: inhibition of radioligand binding (Human melanocortin (MC5); FlashPlate): + (“+” indicates greater than 50% inhibition at 10 μM); A10: inhibition of radioligand binding (Human opioid (ORL1); FlashPlate): − (“−” indicates less than 50% inhibition at 10 μM); A2: inhibition of radioligand binding (Human κ-Opioid (KOP); filtration): − (“−” indicates less than 50% inhibition at 10 μM); A9: inhibition of radioligand binding ([1]; FlashPlate): − (“−” indicates less than 50% inhibition at 10 μM); A7: inhibition of radioligand binding (Human μ-opioid (MOP); FlashPlate): − (“−” indicates less than 50% inhibition at 10 μM); A6: inhibition of radioligand binding ([2]; [125I]-S36057, FlashPlate): − (“−” indicates less than 50% inhibition at 10 μM); A8: inhibition of radioligand binding (Human neurokinin (NK1); filtration): + (“+” indicates greater than 50% inhibition at 10 μM); A3: inhibition of radioligand binding (Human Melanocortin (MC3); FlashPlate): + (“+” indicates greater than 50% inhibition at 10 μM); A1: inhibition of radioligand binding (Human δ-opioid (DOP); FlashPlate): − (“−” indicates less than 50% inhibition at 10 μM)

Source: patent publication US20080009418A1, “Selective Inhibitors” (Alchemia LTD., priority 2004, published 2008)
